Publication PMC7915588, “Polyphyllin D Shows Anticancer Effect through a Selective Inhibition of Src Homology Region 2-Containing Protein Tyrosine Phosphatase-2 (SHP2)” (Molecules, 2021)

Key:
PTPN21 (PTPD1) = molecular target: T1, PTPN21 (PTPD1) (Homo sapiens, UniProt Q16825); assay: biochemical; set-up: Fluorogenic phosphatase assay, DiFMUP hydrolysis by recombinant PTPs, initial velocity, Ex/Em 355/460 nm; settings: read-out: Inhibition by 20 µM polyphyllin D (%)
T1 construct: 839-1174
T1 sequence (Q16825 1-1174): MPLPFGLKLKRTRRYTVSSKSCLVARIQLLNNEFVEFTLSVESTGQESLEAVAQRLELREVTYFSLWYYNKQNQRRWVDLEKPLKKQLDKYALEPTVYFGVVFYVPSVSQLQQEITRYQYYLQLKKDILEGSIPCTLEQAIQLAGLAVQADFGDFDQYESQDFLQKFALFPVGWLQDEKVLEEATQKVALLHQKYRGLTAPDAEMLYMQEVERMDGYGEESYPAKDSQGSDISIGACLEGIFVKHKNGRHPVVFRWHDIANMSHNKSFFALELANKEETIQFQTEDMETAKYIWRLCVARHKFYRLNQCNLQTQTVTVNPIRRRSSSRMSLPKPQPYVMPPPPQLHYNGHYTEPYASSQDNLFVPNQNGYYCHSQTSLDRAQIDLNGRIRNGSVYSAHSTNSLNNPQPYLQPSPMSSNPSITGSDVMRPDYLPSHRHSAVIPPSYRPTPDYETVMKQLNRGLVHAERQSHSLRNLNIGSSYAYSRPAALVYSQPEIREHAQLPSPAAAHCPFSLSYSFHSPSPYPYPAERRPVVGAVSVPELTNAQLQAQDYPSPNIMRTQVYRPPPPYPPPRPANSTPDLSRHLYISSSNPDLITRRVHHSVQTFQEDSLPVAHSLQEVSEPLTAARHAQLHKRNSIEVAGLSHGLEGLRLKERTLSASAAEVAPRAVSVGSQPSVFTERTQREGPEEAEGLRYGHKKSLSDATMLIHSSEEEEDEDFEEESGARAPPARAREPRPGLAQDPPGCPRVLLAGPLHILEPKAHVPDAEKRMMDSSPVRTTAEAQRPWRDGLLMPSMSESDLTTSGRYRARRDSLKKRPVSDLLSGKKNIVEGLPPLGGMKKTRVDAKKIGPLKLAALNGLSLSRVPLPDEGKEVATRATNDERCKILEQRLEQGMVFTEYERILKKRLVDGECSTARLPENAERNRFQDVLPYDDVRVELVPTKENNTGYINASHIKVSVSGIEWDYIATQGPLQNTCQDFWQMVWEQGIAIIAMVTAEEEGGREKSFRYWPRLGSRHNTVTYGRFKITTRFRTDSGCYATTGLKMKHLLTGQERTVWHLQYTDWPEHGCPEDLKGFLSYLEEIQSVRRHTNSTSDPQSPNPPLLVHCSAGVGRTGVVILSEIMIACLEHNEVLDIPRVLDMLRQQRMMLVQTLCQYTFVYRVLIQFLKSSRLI

PTPN2 (TCPTP) = molecular target: T2, PTPN2 (TCPTP) (Homo sapiens, UniProt P17706); assay: biochemical; set-up: Fluorogenic phosphatase assay, DiFMUP hydrolysis by recombinant PTPs, initial velocity, Ex/Em 355/460 nm; settings: read-out: Inhibition by 20 µM polyphyllin D (%)
T2 construct: 1-387
T2 sequence (P17706 1-415): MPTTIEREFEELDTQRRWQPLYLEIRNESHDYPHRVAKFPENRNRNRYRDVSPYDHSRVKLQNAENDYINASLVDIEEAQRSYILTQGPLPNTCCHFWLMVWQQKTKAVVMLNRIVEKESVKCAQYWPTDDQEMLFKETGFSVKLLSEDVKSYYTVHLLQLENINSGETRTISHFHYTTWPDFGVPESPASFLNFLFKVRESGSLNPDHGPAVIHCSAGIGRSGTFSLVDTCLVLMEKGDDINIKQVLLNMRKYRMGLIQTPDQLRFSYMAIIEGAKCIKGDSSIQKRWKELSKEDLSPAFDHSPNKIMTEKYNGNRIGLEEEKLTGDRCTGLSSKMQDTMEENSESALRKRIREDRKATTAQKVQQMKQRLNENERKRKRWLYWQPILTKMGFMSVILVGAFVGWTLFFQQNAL

**Q.** What does the source list for `C[C@@H]1CC[C@@]2(OC1)O[C@H]1C[C@H]3[C@@H]4CC=C5C[C@@H](O[C@@H]6O[C@H](CO)[C@@H](O[C@@H]7O[C@@H](CO)[C@H](O)[C@H]7O)[C@H](O)[C@H]6O[C@@H]6O[C@@H](C)[C@H](O)[C@@H](O)[C@H]6O)CC[C@]5(C)[C@H]4CC[C@]3(C)[C@H]1[C@@H]2C` [polyphyllin D]?
**A.** inhibition at 20 µM (PTPN21 (PTPD1)): 20.5%; inhibition at 20 µM (PTPN2 (TCPTP)): 7.5%
